Experimental data reported in patent publication US10952992B2, “Methods of treating intraocular pressure with activators of Tie-2” (Aerpio Pharmaceuticals, Inc., priority 2015, dated 2021).
Where “and” joins values, the source holds several entries; their conditions need not be identical. Equal values may be shown once. Where a name gives a salt, the structure may show the parent alone.

Tests used:
[1] = Example 2 plasma concentrations and pharmacokinetics after topical ocular, subcutaneous, intravitreal administration; format: in vivo, male New Zealand White rabbits
Method: (§1) To measure the concentration of Compound 1 in plasma and ocular tissues following topical ocular, subcutaneous, and intravitreal administration, New Zealand White rabbits were administered Compound 1, and plasma and ocular samples were collected at pre-determined time points. Compound 1 formulations were prepared fresh on each day of dosing.
(§2) Ocular tissue samples from both eyes of each animal were collected and weights were recorded. Plasma and ocular tissue sample concentrations of Compound 1 were determined by LC-MS/MS.
New Zealand White rabbits weighing 2.5 to 3.5 kg were used on this study. Rabbits were housed one per cage. Animals were not fasted and only healthy animals with no ocular illness were used. Two rabbits per group were sacrificed at each of four ocular tissue sampling time points for a total of eight rabbits per group.
(§3) Animals were anesthetized for ocular (topical) and intravitreal dosing following the 12IA7 IACUC protocol. Each rabbit received a bolus dose of test formulation either via topical ocular administration 3 times daily on Days 1 and 2 (at 0, 6, and 12 hours), and once on Day 3 (at 0 hours) into both eyes; via intravitreal administration into both eyes once on Day 1 (at 0 hours); or via subcutaneous administration 2 times daily on Days 1 and 2 (at 0 and 8 hours) and once daily on Day 3 (at 0 hours). Doses were given within an approximately 1 hour window each day where applicable.
Each blood sample was collected on Day 3 post dose at pre-determined time points from the rabbits via an ear vessel and placed into chilled polypropylene tubes containing sodium heparin as an anticoagulant. Samples were spun by centrifuge at 4° C. and 3,000× g for 5 minutes. Samples were maintained chilled throughout processing. Each plasma sample was placed on dry ice and stored in a freezer at −60° C. to −80° C. pending bioanalysis.
(§4) An LC-MS/MS method was developed for the determination of Compound 1 in rabbit aqueous tissues (plasma, aqueous and vitreous humor) and solid ocular tissue samples. A pre-study standard curve was analyzed to determine the specificity, range, and lower limit of quantitation of the method. Plasma and tissue homogenate study samples were extracted and analyzed. All the samples were treated identically to the standards.
(§5) One eight-point standard curve was used in each analytical batch. To be accepted, each batch must have had at least five of eight standards with accuracy within ±20% of nominal, except at the lower limit of quantification (LLOQ), where ±25% was acceptable.
Pharmacokinetic parameters were calculated from the time course of the plasma concentration. The maximum plasma concentration (Cmax) and time to the maximum plasma drug concentration (Tmax) were the observed values for each concentration-time profiles. The area under the plasma drug concentration-time curve (AUClast, with last being from time 0 to the last quantifiable point) was calculated using the trapezoidal formula. The mean residence time MRTlast was calculated as a ratio of AUMClast (area under the first movement curve) to AUClast.

[2] = Example 2 vitreous humor concentrations; format: in vivo, male New Zealand White rabbits; conditions: Group 1 (topical ocular 1.2 mg/eye)
Method: as §1, §2, §3
On Day 1, for intravitreal administration, or on Day 3, for topical ocular and subcutaneous administration, at the appropriate ocular tissue collection time points, animals were euthanized and both eyes were enucleated immediately. Following enucleation, each eye was rinsed with phosphate-buffered saline. Ocular tissue samples from both eyes of each animal were collected at predetermined time points and weights were recorded. All the samples were frozen immediately on dry ice, and stored at −60° C. to −80° C. pending bioanalysis.
as §4, §5

[3] = Group 1: topical ocular 1.2 mg/eye (~0.7 mg/kg/dose), 15% HPβCD + 1% dextrose solution
[4] = Group 1: topical ocular 1.2 mg/eye (~0.7 mg/kg/dose), 15% HPβCD + 1% dextrose, 0.50 hr
[5] = Group 1: topical ocular 1.2 mg/eye (~0.7 mg/kg/dose), 15% HPβCD + 1% dextrose, 1.0 hr
[6] = Group 1: topical ocular 1.2 mg/eye (~0.7 mg/kg/dose), 15% HPβCD + 1% dextrose, 2.0 hr
[7] = Group 1: topical ocular 1.2 mg/eye (~0.7 mg/kg/dose), 15% HPβCD + 1% dextrose, 4.0 hr
[8] = Group 2: subcutaneous 5 mg/kg/dose, 15% HPβCD + 1% dextrose solution
[9] = Group 2: subcutaneous 5 mg/kg/dose, 15% HPβCD + 1% dextrose solution, 0.25 hr
[10] = Group 2: subcutaneous 5 mg/kg/dose, 15% HPβCD + 1% dextrose solution, 0.50 hr
[11] = Group 2: subcutaneous 5 mg/kg/dose, 15% HPβCD + 1% dextrose solution, 1.0 hr
[12] = Group 2: subcutaneous 5 mg/kg/dose, 15% HPβCD + 1% dextrose solution, 2.0 hr
[13] = Group 2: subcutaneous 5 mg/kg/dose, 15% HPβCD + 1% dextrose solution, 4.0 hr
[14] = Group 2: subcutaneous solution, normalized by nominal dose 5 mg/kg
[15] = Group 4: intravitreal 2.5 mg/eye (~1.55 mg/kg), 10% HPβCD + 2% dextrose solution
[16] = Group 4: intravitreal 2.5 mg/eye (~1.55 mg/kg), 10% HPβCD + 2% dextrose solution, 1.0 hr
[17] = Group 4: intravitreal 2.5 mg/eye (~1.55 mg/kg), 10% HPβCD + 2% dextrose solution, 3.0 hr
[18] = Group 4: intravitreal 2.5 mg/eye (~1.55 mg/kg), 10% HPβCD + 2% dextrose solution, 6.0 hr
[19] = Group 4: intravitreal 2.5 mg/eye (~1.55 mg/kg), 10% HPβCD + 2% dextrose solution, 24.0 hr
[20] = Group 4: intravitreal 2.5 mg/eye (~1.55 mg/kg), 10% HPβCD + 2% dextrose solution, 48.0 hr
[21] = Group 4: intravitreal 2.5 mg/eye (~1.55 mg/kg), 10% HPβCD + 2% dextrose solution, 72.0 hr
[22] = Group 4: intravitreal solution, normalized by nominal dose 1.55 mg/kg

- plasma Cmax (± SE) [1, 3]: 7.48 ± 5.53 ng/mL and 7.48 ng/mL
- plasma MRTlast [1, 3]: 2.98 h
- plasma tmax [1, 3]: 4.00 h
- plasma tmax ([1]; Group 1: topical ocular 1.2 mg/eye (~0.7 mg/kg/dose), 15% HPβCD + 1% dextrose solution, listed as Compound 1 (sodium salt)): 4 h
- plasma Average conc. [1, 4]: 3.03 ng/mL
- plasma Conc., individual rabbit [1, 4]: 3.84 ng/mL and 2.21 ng/mL
- plasma Average conc. [1, 5]: 1.46 ng/mL
- plasma Conc., individual rabbit [1, 5]: 1.28 ng/mL and 1.63 ng/mL
- plasma Average conc. [1, 6]: 1.14 ng/mL
- plasma Conc., individual rabbit [1, 6]: 2.04 ng/mL and 0.241 ng/mL
- plasma Average conc. [1, 7]: 7.48 ng/mL
- plasma Conc., individual rabbit [1, 7]: 13.0 ng/mL and 1.95 ng/mL
- plasma AUC∞ [1, 8]: 1560 ng·h/mL
- plasma Cmax (± SE) [1, 8]: 1525 ± 115 ng/mL and 1525 ng/mL
- plasma MRTlast [1, 8]: 0.87 h
- plasma t1/2 [1, 8]: 0.47 h
- plasma tmax [1, 8]: 0.25 h
- plasma Average conc. [1, 9]: 1525 ng/mL
- plasma Conc., individual rabbit [1, 9]: 1640 ng/mL and 1410 ng/mL
- plasma Average conc. [1, 10]: 1097 ng/mL
- plasma Conc., individual rabbit [1, 10]: 883 ng/mL and 1310 ng/mL
- plasma Average conc. [1, 11]: 646 ng/mL
- plasma Conc., individual rabbit [1, 11]: 664 ng/mL and 628 ng/mL
- plasma Average conc. [1, 12]: 180 ng/mL
- plasma Conc., individual rabbit [1, 12]: 55.5 ng/mL and 305 ng/mL
- plasma Average conc. [1, 13]: 7.76 ng/mL
- plasma Conc., individual rabbit [1, 13]: 7.98 ng/mL and 7.53 ng/mL
- plasma AUC∞, dose normalized [1, 14]: 312 kg·ng·h/mL/mg
- plasma AUClast (± SE) [1, 15]: 953 ± 91.1 ng·h/mL and 953 ng·h/mL
- plasma AUC∞ [1, 15]: 956 ng·h/mL
- plasma Cmax (± SE) [1, 15]: 39.8 ± 2.30 ng/mL and 39.8 ng/mL
- plasma MRTlast [1, 15]: 15.1 h
- plasma t1/2 [1, 15]: 8.08 h
- plasma tmax [1, 15]: 3.00 h
- plasma Average conc. [1, 16]: 32.3 ng/mL
- plasma Conc., individual rabbit [1, 16]: 33.2 ng/mL and 31.3 ng/mL
- plasma Average conc. [1, 17]: 39.8 ng/mL
- plasma Conc., individual rabbit [1, 17]: 37.5 ng/mL and 42.1 ng/mL
- plasma Average conc. [1, 18]: 36.8 ng/mL
- plasma Conc., individual rabbit [1, 18]: 44.3 ng/mL and 29.3 ng/mL
- plasma Average conc. [1, 19]: 16.9 ng/mL
- plasma Conc., individual rabbit [1, 19]: 19.0 ng/mL and 14.7 ng/mL
- plasma Average conc. [1, 20]: 2.58 ng/mL
- plasma Conc., individual rabbit [1, 20]: 2.70 ng/mL and 2.45 ng/mL
- plasma Average conc. [1, 21]: 0.27 ng/mL
- plasma Conc., individual rabbit [1, 21]: 0.215 ng/mL and 0.333 ng/mL
- plasma tmax ([1]; Group 4: intravitreal 2.5 mg/eye (~1.55 mg/kg), 10% HPβCD + 2% dextrose solution, listed as Compound 1 (sodium salt)): 3 h
- plasma AUC∞, dose normalized [1, 22]: 617 kg·ng·h/mL/mg
- mean plasma AUClast between the two dose formulations ([1]; intravitreal administration): comparable
- mean plasma Cmax, sodium salt solution compared to free acid suspension ([1]; intravitreal administration): approximately 2 fold
- mean plasma AUClast, sodium salt solution compared to free acid suspension ([1]; subcutaneous administration): approximately 2 fold
- mean plasma Cmax, sodium salt solution compared to free acid suspension ([1]; subcutaneous administration): approximately 3 fold
- mean plasma Tmax ([1]; subcutaneous administration, postdose): 0.25 h
- vitreous humor Average Conc. ([2]; 0.5 hr): 0.61 ng/g
- vitreous humor Conc. OD ([2]; 0.5 hr): 0.549 ng/mL
- vitreous humor Conc. OS ([2]; 0.5 hr): 0.528 ng/mL and 0.507 ng/mL
- vitreous humor Average Conc. ([2]; 1.0 hr): 2.09 ng/g
- vitreous humor Conc. OD ([2]; 1.0 hr): 1.97 ng/mL and 3.28 ng/mL
- vitreous humor Average Conc. ([2]; 2.0 hr): 3.33 ng/g
- vitreous humor Conc. OD ([2]; 2.0 hr): 1.14 ng/mL
SMILES: COC(=O)N[C@@H](Cc1ccccc1)C(=O)N[C@@H](Cc1ccc(NS(=O)(=O)O)cc1)c1csc(-c2cccs2)n1 [Compound 1 sodium salt]
- plasma AUClast (± SE) [1, 3]: 11.8 ± 5.70 ng·h/mL and 11.8 ng·h/mL
- plasma AUClast, dose normalized ([1]; Group 1: topical ocular, normalized by nominal dose 0.7 mg/kg): 16.8 ± 8.15 kg·ng·h/mL/mg and 16.8 kg·ng·h/mL/mg
- plasma AUClast (± SE) [1, 8]: 1555 ± 195 ng·h/mL and 1555 ng·h/mL
- plasma AUClast, dose normalized [1, 14]: 311 ± 38.9 kg·ng·h/mL/mg and 311 kg·ng·h/mL/mg
- plasma AUClast, dose normalized [1, 22]: 615 ± 58.8 kg·ng·h/mL/mg and 615 kg·ng·h/mL/mg
- plasma concentrations vs free acid (FIG. 5) ([1]; intravitreal administration, up to twenty-four hours post-administration): slightly higher plasma concentrations as compared to the free acid
- plasma concentrations vs free acid (FIG. 4) ([1]; subcutaneous administration, up to one hour post-administration): generally increased plasma concentrations as compared to the free acid
- plasma concentration (FIG. 3) ([1]; topical ocular administration, 4 hour mark): increase in Compound 1 plasma concentration
